The results in this text go back to PMC9890698 (BMC Biology, 2023).

The subject of assay [1] is washed human platelets (P2Y1-R/Gαq signaling). Kind of assay: IP1 accumulation assay (HTRF) in washed human platelets. Type of assay: cell-based. To be noted: for IP1 concentration (% of basal mean at 30 minutes): Fig. S4a, MRS2179 10 µM, individual replicates. As for the experimental part:
As performed in HEK293T cells, we thus quantified intracellular IP1 levels to monitor Gαq protein-dependent signaling pathways.
Human platelets were prepared from adult healthy volunteers free of antiplatelet or anti-inflammatory medication since at least ten days. […] After two steps of centrifugation and suspension in Tyrode’s buffer (140 mM NaCl, 5 mM KCl, 5 mM KH2PO4, 1 mM MgSO4, 10 mM HEPES, 5 mM glucose and 0.35% (w/v) BSA, pH 6,7), washed platelets were suspended in the same buffer adjusted to pH 7.4 and containing 1 mM CaCl2. The final platelet suspension was adjusted to 3.10^8 platelets/mL and rested for 45 min in the presence of 0.02 U/mL apyrase and 10 μM indomethacin at 37 °C prior experiments. PGI2 (0.5 μM) was added before centrifugation steps to avoid platelet activation.
Quantification of intracellular IP1 was performed using the HTRF (Homogeneous Time Resolved Fluorescence) IP1 competitive immunoassay (IP-One Tb kit. Cisbio. France) according to the manufacturer’s instructions. Briefly, 20,000 HEK293T/17 cells or 3.10^6 platelets were distributed in a 384-well white microplate (Greiner) and incubated with the indicated molecules for 30 min or 2 h at 37 °C in the presence of 50 mM of LiCl to prevent IP1 degradation. After addition of d2-labeled IP1 (acceptor) and anti-IP1-Cryptate (donor) for 1 h, the specific FRET signals were calculated by the fluorescence ratio of the acceptor and donor emission signal (665/620 nm) collected using a modified Infinite F500 (Tecan Group Ltd). Conversion of the HTRF ratio of each sample into IP1 concentrations was performed on the basis of a standard curve to determine the linear dynamic range of the assay.
(TR-FRET usually uses a lanthanide donor and a delayed reading to cut background.)

In the next assay the target is T1, Human P2Y1-R (Homo sapiens, UniProt P47900).
T1 construct: expressed in transfected cells; host or cells: HEK293T/17
T1 sequence (P47900 whole entry): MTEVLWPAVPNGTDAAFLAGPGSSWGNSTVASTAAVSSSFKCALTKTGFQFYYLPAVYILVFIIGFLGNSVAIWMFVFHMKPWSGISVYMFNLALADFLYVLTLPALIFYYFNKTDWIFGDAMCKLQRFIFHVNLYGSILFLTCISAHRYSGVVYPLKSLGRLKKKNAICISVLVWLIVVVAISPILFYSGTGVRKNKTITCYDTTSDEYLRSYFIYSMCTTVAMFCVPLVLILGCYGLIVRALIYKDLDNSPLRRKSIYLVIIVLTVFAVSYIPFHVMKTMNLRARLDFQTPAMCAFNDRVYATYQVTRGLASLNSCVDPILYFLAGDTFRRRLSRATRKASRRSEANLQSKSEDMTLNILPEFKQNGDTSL
As to the kind of experiment: Gαq protein activation BRET2 assay (Gαq-RLuc8/GFP2-Gγ2/Gβ1) in HEK293T cells expressing P2Y1-R. The format is cell-based. Set-up: ADP-modulated BRET / MRS2179-modulated BRET: unit not given here. To be noted: for G protein signaling, Ligand-modulated BRET (% of maximum MRS2179 mean value): Figure 4a, individual replicates. From the text:
As previously described, using a BRET^2 (bioluminescence resonance energy transfer)-based assay, we directly monitored the basal Gαq protein activation by measuring the interaction between Gαq and Gγ2 subunits of the Gαqβ1γ2 heterotrimer complex. Indeed, this assay is based on the non-radiative transfer between the Renilla reniformis luciferase (RLuc8) energy donor fused to the Gαq protein subunit and the fluorescent GFP2 energy acceptor fused to Gγ2 protein subunit (Fig. 1a). […] By contrast, ligand-independent constitutive receptor activation or agonist-induced receptor activation will promote Gαq/Gγ2 subunit dissociation, thereby leading to a decrease of the basal BRET signal (Fig. 1a). […] To preclude any P2Y1-R activation by a passive release of ADP by HEK293T cells, we performed similar experiments in the presence of high concentration of apyrase (0.2U/mL) to degrade any trace of ADP in the medium (Additional File 2: Fig. S2a). Under these conditions, P2Y1-R expression still induces a marked and significant decrease of the basal BRET signal compared to control cells (pcDNA3.1), thereby supporting a P2Y1-R-dependent constitutive activation of Gαq protein. […] Of note, because P2Y1-R and AT1-R were respectively Myc- and HA-tagged and were thus detected using different primary antibodies, their expression at the cell surface cannot be compared between each other’s.
Human P2Y1-R (NCBI Reference Sequence: NM_002563.2) and P2Y12-R (NCBI Reference Sequence: NM_022788.3) were fused to double Myc epitope and rat AT1-R (NCBI Reference Sequence: NM_030985.4) to HA tag in N-terminus extracellular region. Alternatively, receptors were also fused to Venus tag in C-terminus intracellular region. Plasmids encoding Gαq-RLuc8, GFP2-Gγ2 and untagged Gβ1 were previously described. ADP was purchased from Sigma-Aldrich/Merck (Darmstadt, Germany). […] The Gq inhibitor (FR900359) was kindly supplied by Evi Kostenis (University of Bonn. Germany).
G protein activation and β-arrestin 2 recruitment were performed as previously described. Briefly, vectors encoding receptors, Gαq-RLuc8, GFP2-Gγ2, Gβ1, or β-arrestin 2 were transiently cotransfected into HEK293T/17 cells as indicated in the figure legends. Forty-eight hours after transfection, cells were washed and resuspended in PBS containing 0.1% (w/v) glucose at room temperature and then distributed (80 μg proteins/well) in a 96-well microplate (PerkinElmer). For G protein activation experiments (BRET^2), cells were incubated in the absence (basal BRET signal) or in the presence of ligand for 1 minute. BRET signal between RLuc8 and GFP2 was measured after addition of the luciferase substrate coelenterazine 400a (5 μM). For β-arrestin 2 recruitment (BRET^1), cells were stimulated with ligands for 5 or 15 min. BRET signal was recorded after incubation with coelenterazine h (5 μM) for 8 min. For kinetics studies, BRET signal between RLuc and Venus was recorded at 20-s intervals at basal state for the 2 first minutes and then for 5 min after ligand injection. For saturation curves (BRET^1), the expression level of Venus- or RLuc-tagged protein was determined by direct measurement of total fluorescence and luminescence respectively. Total fluorescence was first measured with an excitation filter at 485 nm and an emission filter at 520 nm. Then, the same sample was incubated for 8 minutes with 5 μM coelenterazine h and the total luminescence was measured. BRET^2 and BRET^1 readings were collected using a modified Infinite F500 (Tecan Group Ltd). The BRET^2 signal was calculated by the ratio of emission of GFP2 (510–540 nm) to RLuc8 (370–450 nm) and the BRET^1 signal by the ratio of emission of Venus (520–570 nm) to RLuc (370–480 nm). […]
(In general: Bioluminescence resonance energy transfer reports proximity on the nanometre scale.)

The mark [2] stands for this setting: G protein signaling, Fig. 4a, 1 min.

Several values for one entry are separate records, joined by “and”; a condition that tells them apart may be missing. Equal entries are not always repeated.

Turning to `CNc1ncnc2c1ncn2[C@H]1C[C@H](OP(=O)(O)O)[C@@H](COP(=O)(O)O)O1` [MRS2179], the “IP1 concentration (% of basal mean at 30 minutes)” value is 61.0057 % of basal mean at 30 minutes and 99.6481 % of basal mean at 30 minutes and 82.2183 % of basal mean at 30 minutes and 56.7485 % of basal mean at 30 minutes in assay [1] (30 minutes); 94.0172 % of basal mean at 30 minutes and 113.32 % of basal mean at 30 minutes and 105.9 % of basal mean at 30 minutes and 70.9752 % of basal mean at 30 minutes in assay [1] (2 hours). The “IP1 concentration (% matched basal values)” value in assay [1] (human platelets, MRS2179 10 μM, 2 h, individual donors) is 129.303 % matched basal values and 123.213 % matched basal values and 123.793 % matched basal values and 163.625 % matched basal values and 131.963 % matched basal values and 159.513 % matched basal values and 140.89 % matched basal values and 171.298 % matched basal values and 155.836 % matched basal values and 154.357 % matched basal values and 192.203 % matched basal values and 190.967 % matched basal values and 205.13 % matched basal values and 115.394 % matched basal values and 124.227 % matched basal values and 114.571 % matched basal values. Further, the “Effect on IP1 levels” value in assay [1] (washed human platelets, ADP 100 μM, antagonists 10 μM, Gq inhibitor 100 nM, 2 h, apyrase 0.02 U/mL, result in words) was “decreased IP1 levels”. In addition, the “Maximal efficacy (Emax ± s.e.m.), MRS2179-modulated BRET” value on Human P2Y1-R (Fig. 1f, 1 min stimulation, difference in BRET signal with and without ligand) is 0.1224 ± 0.01335. The EC50 turned out to be 11.1 µM at Human P2Y1-R (Fig. 1f, MRS2179 inverse agonism on Gαq protein activity, 1 min) and 15.2 µM at Human P2Y1-R (setting [2]). The “pEC50 ± s.e.m.” value at Human P2Y1-R (Fig. 1f, inverse agonism on Gαq protein activity, 1 min) was found to be 4.955 ± 0.1405; at Human P2Y1-R (setting [2]), 4.817 ± 0.0671. For the same molecule, the “G protein signaling, Ligand-modulated BRET (% of maximum MRS2179 mean value)” value on Human P2Y1-R ([Ligand] 1.00E-04 M) was 119.465 % of maximum MRS2179 mean value and 98.3727 % of maximum MRS2179 mean value and 97.2091 % of maximum MRS2179 mean value and 96.9774 % of maximum MRS2179 mean value and 99.1946 % of maximum MRS2179 mean value and 88.7807 % of maximum MRS2179 mean value; at Human P2Y1-R ([Ligand] 1.00E-05 M) it was 56.3081 % of maximum MRS2179 mean value and 33.7445 % of maximum MRS2179 mean value and 25.9535 % of maximum MRS2179 mean value and 52.677 % of maximum MRS2179 mean value and 40.3542 % of maximum MRS2179 mean value and 35.9046 % of maximum MRS2179 mean value; on Human P2Y1-R ([Ligand] 1.00E-06 M) it was 9.486 % of maximum MRS2179 mean value and 10.5017 % of maximum MRS2179 mean value and 11.1842 % of maximum MRS2179 mean value and 16.1238 % of maximum MRS2179 mean value and -1.632 % of maximum MRS2179 mean value and 9.136 % of maximum MRS2179 mean value; on Human P2Y1-R ([Ligand] 1.00E-07 M), -1.306 % of maximum MRS2179 mean value and -6.5129 % of maximum MRS2179 mean value and -11.3924 % of maximum MRS2179 mean value and -9.0003 % of maximum MRS2179 mean value and -8.705 % of maximum MRS2179 mean value and -1.657 % of maximum MRS2179 mean value; at Human P2Y1-R ([Ligand] 1.00E-08 M), 0.5671 % of maximum MRS2179 mean value and -5.257 % of maximum MRS2179 mean value and -11.3188 % of maximum MRS2179 mean value and -7.6778 % of maximum MRS2179 mean value and -4.305 % of maximum MRS2179 mean value and -3.069 % of maximum MRS2179 mean value; on Human P2Y1-R ([Ligand] 1.00E-09 M), -1.107 % of maximum MRS2179 mean value and -5.538 % of maximum MRS2179 mean value and -15.6317 % of maximum MRS2179 mean value and -13.6938 % of maximum MRS2179 mean value and -9.3466 % of maximum MRS2179 mean value and -3.722 % of maximum MRS2179 mean value. The “G protein signaling, Ligand-modulated BRET (% of maximum MRS2179 mean value)” value on Human P2Y1-R ([Ligand] 1.00E-10 M) was -2.846 % of maximum MRS2179 mean value and -13.4143 % of maximum MRS2179 mean value and -1.422 % of maximum MRS2179 mean value and -10.0078 % of maximum MRS2179 mean value and -9.182 % of maximum MRS2179 mean value and 0.7769 % of maximum MRS2179 mean value. In addition, on Human P2Y1-R (G protein signaling, Fig. 4a, 1 min, normalized to the mean value of maximal MRS2179 response, in %), the “Emax ± s.e.m.” value is given as 115.7 ± 5.057. At Human P2Y1-R (HEK293T cells, result in words), the “Behaviour on P2Y1-R-dependent constitutive Gαq protein activation” value is given as “inverse agonist”. For the same molecule, on Human P2Y1-R ([MRS2179] 1.00E-04 M, 1 min), the “MRS2179-modulated BRET” value was 0.06995 and 0.1332 and 0.1164 and 0.136 and 0.09077.

As usually defined, the EC50 is the midpoint of the concentration-response curve.
